The values that follow come from ChEMBL document CHEMBL4359857, “Design, synthesis and biological evaluation of chalcones as reversers of P-glycoprotein-mediated multidrug resistance” (Eur J Med Chem, 2019).

Calls of active or inactive are those of the source. The rule behind the calls is not given here. A value given as a limit tells only on which side of the number the result lay.

For series [1], the system named is MCF7-DOX. As to the kind of experiment: Cytotoxicity against human MCF7/Dox cells assessed as reduction in cell viability after 48 hrs by MTT assay. In kind it is cell-based.
The nature of series [2]: Cytotoxicity against human MCF7/Dox cells assessed as cell survival at 12.5 uM after 48 hrs by MTT assay relative to control. In kind it is cell-based. Particulars: read-out: Survival.
Series [3] can be described thus: Reversal of P-gp-mediated multidrug resistance in human MCF7/Dox cells assessed as potentiation of doxorubicin-induced cytotoxicity by measuring doxorubicin IC50 at 12.5 uM after 48 hrs by MTT assay (reference value: 51.19 +/- 0.95 microM). On the technique in general: Tetrazolium dyes change colour on reduction, which living cells bring about.
Series [4] concerns MCF7-DOX. As to the kind of experiment: Antitumour activity against human MCF7/Dox cells xenografted in Balb/c mouse assessed as tumour growth inhibition at 2 mg/kg measured after 30 days. The format is functional, organism-based. On the technique in general: In xenograft studies the graft and the host belong to different species.

For orientation: IC50 means the midpoint of a concentration-inhibition curve. In the case of `COc1cc(O)c(C(=O)/C=C/c2cccc(N3CCN(C(=O)c4ccc(OC)c(OC)c4)CC3)c2)c(OC)c1`, the IC50 in the series with MCF7-DOX [1] was greater than 100 µM. In addition, the viability at 48 h, 12.5 µM in series [2] is greater than 99%.
Taken in the same sequence, the figures for `COc1cc(O)c(C(=O)/C=C/c2cccc(N3CCNCC3)c2)c(OC)c1` were 99.2 µM and greater than 99%.
The matching figures for `COc1cc(OC)c(C(=O)/C=C/c2ccc(N3CCN(C(=O)OC(C)(C)C)CC3)cc2)c(O)c1CC=C(C)C`: greater than 100 µM and greater than 99%.
As for `COc1cccc(/C=C/C(=O)c2c(OC)cc(OC)c(CC=C(C)C)c2O)c1`, in the series on MCF7-DOX [1], the IC50 was determined as 49.2 µM. Further, the viability at 48 h, 12.5 µM in series [2] is greater than 99%.
The matching figures for `COc1cc(O)c(C(=O)/C=C/c2ccc(N3CCN(C(=O)OC(C)(C)C)CC3)cc2)c(OC)c1`: 47.3 µM and 90.6%.
Taken in the same sequence, the figures for `COc1c(C)c(O)c(C)c(O)c1C(=O)/C=C/c1ccccc1` were 46.8 µM and 86%.
Consider `CCCCCc1c(OC)cc(OC)c(C(=O)/C=C/c2cccc(N3CCNCC3)c2)c1O`, for which the IC50 with MCF7-DOX [1] was greater than 100 µM. The viability at 48 h, 12.5 µM in series [2] came to 93.6%.
Taken in the same sequence, the figures for `COc1cc(OC)c(C(=O)/C=C/c2cccc(N3CCN(C(=O)OC(C)(C)C)CC3)c2)c(O)c1CC=C(C)C` were 42.6 µM and 93%.
In the case of `COc1cc(OC)c(C(=O)/C=C/c2cccc(Cl)c2)c(O)c1CC=C(C)C`, the IC50 with MCF7-DOX [1] was found to be 59.5 µM. In addition, in series [2], the viability at 48 h, 12.5 µM is greater than 99%.
The matching figures for `COc1cc(OC)c(C(=O)/C=C/c2ccc(N(C)C)cc2)c(O)c1CC=C(C)C`: greater than 100 µM and greater than 99%.
For `COc1cc(OC)c(C(=O)/C=C/c2ccc(Cl)cc2)c(O)c1CC=C(C)C`, the IC50 with MCF7-DOX [1] was 43.4 µM. In series [2], the viability at 48 h, 12.5 µM was determined as 90.1%.
Taken in the same sequence, the figures for `CCCc1c(OC)cc(OC)c(C(=O)/C=C/c2cccc(N3CCNCC3)c2)c1O` were greater than 100 µM and greater than 99%.
With `COc1cc(OC)c(C(=O)/C=C/c2ccc(N3CCNCC3)cc2)c(O)c1CC=C(C)C`, the IC50 in the series with MCF7-DOX [1] is 57.8 µM; in series [3], 14.84 µM. The viability at 48 h, 12.5 µM in series [2] turned out to be 98.3%.
Take `COc1cc(OC)c(C(=O)/C=C/c2cccc(F)c2)c(O)c1CC=C(C)C`: in the series with MCF7-DOX [1], the IC50 was determined as 45.4 µM. Besides, the viability at 48 h, 12.5 µM in series [2] was determined as 92.7%.
As for `COc1ccc(/C=C/C(=O)c2c(OC)cc(OC)c(CC=C(C)C)c2O)cc1`, the IC50 in the series on MCF7-DOX [1] was determined as 46.9 µM. In series [2], the viability at 48 h, 12.5 µM was greater than 99%.
Taken in the same sequence, the figures for `COc1cc(O)c(C(=O)/C=C/c2cccc(N3CCN(C)CC3)c2)c(OC)c1` were 62.2 µM and greater than 99%.
Taken in the same sequence, the figures for `COc1ccc(C(=O)/C=C/c2cccc(N3CCNCC3)c2)c(OC)c1` were 95 µM and 96.4%.
Taken in the same sequence, the figures for `CCCCc1c(OC)cc(OC)c(C(=O)/C=C/c2cccc(N3CCNCC3)c2)c1O` were greater than 100 µM and 91.6%.
`COc1cc(OC)c(C(=O)/C=C/c2ccc(C(F)(F)F)cc2)c(O)c1CC=C(C)C`: the IC50 stood at 73.7 µM in the series on MCF7-DOX [1] and 23.59 µM in series [3]. Moreover, in series [2], the viability at 48 h, 12.5 µM was greater than 99%.
Take `CCc1c(OC)cc(OC)c(C(=O)/C=C/c2cccc(N3CCNCC3)c2)c1O`: in the series on MCF7-DOX [1], the IC50 was greater than 100 µM. Moreover, the viability at 48 h, 12.5 µM in series [2] came out at 89.5%.
As for `COc1cc(OC)c(C(=O)/C=C/c2cccc(N3CCN(C)CC3)c2)c(O)c1CC=C(C)C`, the IC50 with MCF7-DOX [1] was greater than 100 µM; in series [3], 23.59 µM. The viability at 48 h, 12.5 µM in series [2] was greater than 99%.
Taken in the same sequence, the figures for `COc1cc(OC)c(C(=O)/C=C/c2cccc(N3CCNCC3)c2)c(O)c1C` were 98.7 µM, 4 µM and 95.8%.
Consider `COc1cc(OC)c(C(=O)/C=C/c2cccc(N3CCOCC3)c2)c(O)c1CC=C(C)C`, for which the IC50 in the series with MCF7-DOX [1] is greater than 100 µM. Moreover, the viability at 48 h, 12.5 µM in series [2] was greater than 99%.
As to `COc1cc(OC)c(C(=O)/C=C/c2ccc(F)cc2)c(O)c1CC=C(C)C`, the IC50 was 53.7 µM in the series with MCF7-DOX [1] and 17.96 µM in series [3]. Moreover, the viability at 48 h, 12.5 µM in series [2] is 94.3%.
The matching figures for `COc1cc(OC)c(C(=O)/C=C/c2ccccc2)c(O)c1CC=C(C)C`: 65.4 µM, 20.64 µM and 90.6%.
Turning to `COc1cc(OC)c(C(=O)/C=C/c2cc(OC)c(OC)c(OC)c2)c(O)c1CC=C(C)C`, the IC50 with MCF7-DOX [1] was 74.9 µM; in series [3] it was 26.56 µM. Moreover, the viability at 48 h, 12.5 µM in series [2] worked out at 90.8%.
Consider `COc1cc(OC)c(C(=O)/C=C/c2ccc(OC)c(OC)c2OC)c(O)c1CC=C(C)C`, for which the IC50 in the series with MCF7-DOX [1] came out at 62.6 µM. Also, the viability at 48 h, 12.5 µM in series [2] came to 91.9%.
On to `COc1cc(OC)c(C(=O)/C=C/c2cccc([N+](=O)[O-])c2)c(O)c1CC=C(C)C`, for which the IC50 with MCF7-DOX [1] worked out at 57 µM; in series [3], 8.83 µM. Further, the viability at 48 h, 12.5 µM in series [2] is greater than 99%.
Take `COc1cccc2c1C(=O)c1c(O)c3c(c(O)c1C2=O)C[C@@](O)(C(=O)CO)C[C@@H]3O[C@H]1C[C@H](N)[C@H](O)[C@H](C)O1`: the inhibition result with MCF7-DOX [4] was “inactive”.
For the molecule `COc1cc(O)c(C(=O)/C=C/c2ccc(N3CCNCC3)cc2)c(OC)c1`, the IC50 in the series with MCF7-DOX [1] came to 67.5 µM; in series [3], 16.62 µM. Further, the viability at 48 h, 12.5 µM in series [2] was 94.2%.
In the case of `COc1cc(OC)c(C(=O)/C=C/c2cccc(C(F)(F)F)c2)c(O)c1CC=C(C)C`, the IC50 in the series with MCF7-DOX [1] came to 66.6 µM. Further, the viability at 48 h, 12.5 µM in series [2] came out at 91.6%.
For the molecule `COc1cc(O)c(C(=O)/C=C/c2cccc(N3CCOCC3)c2)c(OC)c1`, in the series on MCF7-DOX [1], the IC50 is greater than 100 µM. Moreover, the viability at 48 h, 12.5 µM in series [2] was greater than 99%.
As to `COc1cc(O)c(C(=O)/C=C/c2cccc(N3CCN(C(=O)OC(C)(C)C)CC3)c2)c(OC)c1`, the IC50 is 56.7 µM with MCF7-DOX [1] and 39.95 µM in series [3]. Besides, the viability at 48 h, 12.5 µM in series [2] stood at 85.4%.
